Patent US20250100962A1 (CITY OF HOPE, priority 2023, published 2025)

Assays:
[1] = system: human primary myoblasts derived from DMD patients; assay: MTT cell viability of human DMD primary myoblasts; format: cell-based
Protocol: (§1) Cells were seeded at 5×10^4 concentration in 100 μl culture medium into 96 wells flat bottom microplates and treated after 24 h with desired compounds and controls. After desired incubation periods, cells were treated with MTT labeling reagent 1× (MTT (3-[4,5-dimethylthiazol-2-yl]-2,5-diphenyltetrazolium bromide labeling reagent, 5 mg/ml in PBS, Roche Cell Proliferation Kit I (MTT)) and Solubilization buffer 1× (10% SDS in 0.01 M HCl and left overnight. Next morning absorbance was measured at 570 nm and 700 nm on microplate (ELISA) reader (TECAN infinite M200pro). The mean and standard deviation values were calculated for each well and graphed.
(§2) FIGS. 41A-41D. Effect of Chlorhexidine (CHX) and CM002 treatment on viability of mouse and human myoblasts. To determine potential toxic effects of CHX and CM002, we treated mouse C2C12 myoblast cell line with increasing concentrations from 0.2-5 μM for 48 hours and determined cell viability using the MTT assay (FIG. 41A). […] Considering the inflammatory milieus in dystrophic muscles, we further tested the tolerance of myoblasts to these molecules in the presence of inflammatory stimuli, a cytokine cocktail (CC) consisted of 10 ng/mL IL-1β, 100 ng/mL IFN-γ and 25 ng/mL of TNF-α (FIG. 41B). […] Lastly, human primary myoblasts derived from Duchene Muscular Dystrophy (DMD) patients were used to determine their tolerance to these compounds.

[2] = system: mdx mouse primary myoblasts; assay: MTT cell viability of mdx mouse primary myoblasts; format: cell-based
Protocol: as §1, §2

[3] = system: primary bone marrow-derived macrophages; assay: NLRP3 inflammasome and CHOP expression in primary bone marrow-derived macrophages; format: cell-based; conditions: for NLRP3 and CHOP with LPS stimulation: LPS challenge; for NLRP3 expression, basal unstimulated: immunoblot
Text: FIGS. 46A-46D. […] Chronic inflammation in dystrophic muscle, due to the persistent muscle damage with sustained degeneration and regeneration cycles, is a significant component of the pathogenic characteristics of muscular dystrophy contributing to muscle wasting. We thus determined potential ameliorative effects of CHX and CM002 on muscle inflammation in the mdx mice.

[4] = system: Wnt signaling activity; assay: TOPFlash luciferase reporter (Wnt activity) in U2OS cells; format: cell-based; conditions: for TOPFlash reporter activity, Wnt3a-containing media: Wnt3a stimulated; for TOPFlash Wnt activity, basal condition: without Wnt stimulation
Protocol: FIGS. 20A-20F. Effect of CM002 on activating circadian clock function. […] We tested the effect of CM002 from 0.2-5 μM on clock modulation in […] cells containing Per2::dLuc reporter using Lumicycle by monitoring chemiluminescence recordings for 6 days. The results were presented using the average original luminescence (FIG. 20A) or baseline-adjusted presentation (FIG. 20B). […] Based on the known clock effect on stimulating Wnt signaling activity, we used a TCF4 promoter-driven TOPFlash luciferase reporter to determine the effect of CM002 on Wnt pathway and compared this activity with CHX.
TOPFlash luciferase reporter assay. M50 Super 8×TOPFlash luciferase reporter containing Wnt-responsive TCF bindings sites was a gift from Randall Moon (Veeman, Slusarski, Kaykas et al., 2003) obtained from Addgene (Addgene plasmid #12456). Cells were seeded and grown overnight, and cell transfection was performed at 90% confluency. 24 hours following transfection, cells were treated using 10% Wnt3a conditioned media obtained from L Wnt-3A cell line (ATCC CRL-2647) to induce luciferase activity. Luciferase activity was assayed using Dual-Luciferase Reporter Assay Kit (Promega) in 96-well black plates. TOPFlash luciferase reporter luminescence was measured on microplate reader (TECAN infinite M200pro) and normalized to control FOPFlash activity, as previously described (Guo et al., 2012). The mean and standard deviation values were calculated for each well and graphed.

[5] = system: C3H10T1/2 cells; assay: Adipogenic differentiation of C3H10T1/2 mesenchymal precursors; format: cell-based; conditions: for adipogenic factors C/EBPα and PPARγ / mature adipocyte marker expression (FASN): 1 μM, immunoblot; for adipogenic factors C/EBPα and PPARγ: day 7 differentiated; for mature adipocyte formation / lipid accumulation: day 8, oil-red-O and Bodipy
Protocol: Cell culture and adipogenic differentiation. 3T3-L1 and C3H10T1/2 cell lines were obtained from ATCC, and maintained in DMEM with 10% fetal bovine serum supplemented with 1% Penicillin-Streptomycin-Glutamine, as previously described (Nam, Guo, Chatterjee et al., 2015; Liu, Xiong, Nam et al., 2020). 0.25% Trypsin was used for digestion and passaging of these cell lines. For adipogenic differentiation induction media (1.6 μM insulin, 1 μM dexamethasone, 0.5 mM IBMX, 0.5 uM Rosiglitazone) was used for 3 days followed by maintenance medium with insulin for 3 days for 3T3-L1 and 5 days for C3H10T1/2 cells, as previously described (Liu et al., 2020).
Oil-red-O and Bodipy staining. These stainings for neutral lipids during adipogenic differentiation were performed as previously described (Nam et al., 2015). Briefly, for oil-red-O staining, cells were fixed using 10% formalin and incubated using 0.5% oil-red-O solution for 1 hour. Bodipy 493/503 was used at 1 mg/L together with DAPI for 15 minutes, following 4% paraformaldehyde fixation and permeabilization with 0.2% triton-X100.
Immunoblot analysis. Total protein was extracted using lysis buffer containing 3% NaCl, 5% Tris-HCl, 10% Glycerol, 0.5% Triton X-10 in MilliQ water with protease inhibitor cocktail. 20-40 μg of total protein was resolved on 10% SDS-PAGE gels followed by immunoblotting on PVDF membranes (Bio-rad). Membranes were developed by chemiluminescence (SuperSignal West Pico, Pierce Biotechnology) and signals were obtained via a chemiluminescence imager (Amersham Imager 680, GE Biosciences).

[6] = system: C2C12 myoblasts; assay: EdU proliferation assay in C2C12 myoblasts; format: cell-based, mouse
Protocol: Cells were seeded at 0.2×10^5 concentration and treated with desired compounds and controls overnight. The seeding density was decided after trying several densities and choosing the one that after 24 h lead to visible, not clumping cells. 10 μM 5-ethynyl-2′-deoxyuridine (EdU) incorporation was performed during 4 h according to the kit protocol and detected by Click-iT Imaging Kit with Alexa 488 Fluorophore (Invitrogen). 1 μg/ml 4′,6′-diamidine-2′-phenylindole dihydrochloride (DAPI) was used to label for nuclei. Total number of EdU+ cells was counted from 8 representative fields at 20× and the rate of proliferation was calculated as percentage of EdU+/DAPI.

Structure (SMILES)	cell death at 5 μM ([1]; human, 5 μM)	concentration up to which cells remain viable ([2]; mdx, mouse)	cell death at 2.5 μM ([2]; mdx, mouse, 2.5 μM)	NLRP3 and CHOP with LPS stimulation [3]	NLRP3 expression, basal unstimulated [3]	TOPFlash reporter activity, Wnt3a-containing media [4]	TOPFlash Wnt activity, basal condition [4]	adipogenic factors C/EBPα and PPARγ [5]	mature adipocyte marker expression (FASN) [5]	mature adipocyte formation / lipid accumulation [5]	proliferation (EdU incorporation) ([6]; 4 hours, 0.5 and 1 μM)	concentration up to which viability is not significantly compromised ([1]; with cytokine cocktail)	concentration causing cell death ([2]; with cytokine cocktail) [nM]	concentration inducing CHOP (ER stress marker) [3] [nM]	adipogenic maturation, early stage ([5]; 5 days after adipogenic induction, oil-red-O)	increase of proliferation (EdU incorporation) ([6]; both concentrations tested, 24 hours) [%]
CCCCCC/C=N/C(=N)NC(=N)Nc1ccc(Cl)cc1 [CM002]	displaying sensitivity to cell death by CM002 treatment at this concentration	up to 1 μM	significantly less cell death at 2.5 μM	suppressed NLRP3 in the presence of LPS without inducing CHOP	able to attenuate its expression	0.1 μM of CM002 comparable to that of CHX induction at 1 μM	augmented Wnt activity at basal condition	strong inhibition of adipogenic factors C/EBPα and PPARγ	substantially lower	markedly suppressed their differentiation in a dose-dependent manner	significantly increased proliferation of C2C12 myoblasts	–	–	–	–	–
[H]/N=C(\N/C(=N/[H])NCCCCCCNC(=N)NC(=N)Nc1ccc(Cl)cc1)Nc1ccc(Cl)cc1 [CHX, chlorhexidine]	–	–	–	failed to inhibit NLRP3 inflammasome and displayed stimulatory effect at high concentrations accompanied with CHOP induction	able to attenuate its expression	significantly induced	augmented Wnt activity at basal condition	significantly impaired levels of adipogenic factors	attenuated expression of fatty acid synthase	attenuated mature adipocyte formation	–	up to 5 μM	≥ 500	≥ 1000	dose-dependent inhibition of adipogenic maturation	~40
